Several values for one entry are separate records, joined by “and”; a condition that tells them apart may be missing. Equal values may be shown once. Read-outs that look alike come from different tables or passages of the source.
Legend:
[1] = tested on: SHIV-SF162P3; test: microbe, parasite or virus in culture; format: cell-based, SHIV (in rhesus macaque, Macaca mulatta, PBMCs); conditions: for % Virus Production, replicates n1–n3: experiments 1–7; for % Virus Production, MEAN: per experiment 1–7
Description: Freshly isolated PBMCs from three male rhesus macaque (M. mulatta) donors of Indian origin (HumanCells Biosciences) were cultured in RPMI-1640 cell culture medium (Life Technologies) supplemented with 10% heat-inactivated FBS (Hyclone), 2 mM glutamine and 100 U ml^−1 penicillin plus 100 μg ml^−1 streptomycin (complete RPMI). Before their use in the antiviral assays, rhesus PBMCs from three independent donors were pooled and activated at a density of 3 × 10^6 cells per ml for 72 h at 37 °C by the addition of 1 μg ml^–1 phytohemagglutinin (PHA, Sigma-Aldrich) and 50 U ml^−1 recombinant human interleukin-2 (IL-2) (Roche Diagnostics).
PHA/IL-2-stimulated rhesus PBMCs were infected in bulk culture with SHIV-SF162P3 at a concentration of 130 pg of p27 equivalent per million PBMCs. The cells were maintained in suspension by gently rocking the cultures mixed with virus inoculum for 3 h at 37 °C. The cells were then pelleted by centrifugation at 500g for 5 min, washed twice with complete RPMI to remove any unadsorbed virus and seeded into 96-well plates at a cell density of 2 × 10^5 cells per well in 100 μl. […] The cultures were incubated in a 5% CO2 incubator at 37 °C for 7 days. Cell-free supernatants derived from the PBMC cultures were harvested 7 days after infection, the amount of SHIV present was quantified using an SIV p27 antigen-capture ELISA assay (5436, Advanced Bioscience Laboratories) performed according to the manufacturer’s protocol, and the data were acquired using SoftMax Pro 6.3.1 software (Molecular Devices).

[2] = Metabolic stability of [3H]GS-CA1 in primary rhesus hepatocytes; format: in vitro ADME
Description: Propranolol (1 μM final), a compound known to be efficiently metabolized by hepatocytes by oxidation and conjugation, was used as a positive control. A cell-free control was incubated in parallel as a negative control. Aliquots (100 μl) were removed after 0 h, 1 h, 3 h and 6 h and were then mixed with 200 μl quenching solution, placed on a shaker for 10 min and centrifuged at 3,000g for 60 min. The supernatant was transferred to a new plate, diluted with 100 μl water and placed on a shaker for 10 min. […] PerkinElmer Ultima-Flo was used as the scintillation cocktail, which was mixed with the HPLC effluent at a ratio of 1:1. Sample (100 μl) was injected using a Leap Technologies CTC PAL autosampler. Separation was achieved on a Phenomenex Synergi Fusion-RP 80-Å pore size, 4-μm particle size, 150 × 4.6-mm column maintained at 32 °C. Mobile phase A consisted of 95% water, 5% acetonitrile and 0.1% trifluoroacetic acid (TFA). Mobile phase B consisted of 95% acetonitrile, 5% water and 0.1% TFA. […] The column was allowed to re-equilibrate for 12 min between injections. Quantification was based on the radiochromatographic peak area using Dionex (Thermo Scientific) Chromeleon 6.8 software.

[3] = Plasma GS-CA1 pharmacokinetics in the repeat SHIV challenge study; format: in vivo, rhesus macaques of Indian origin; conditions: 150 mg/kg single s.c.; for Plasma GS-CA1: individual animals
Description: For the challenge study, 24 outbred rhesus macaques of Indian origin were assigned to the three study groups with even sex and weight distributions. All animals were housed at Alpha Genesis (Yemassee, SC), and all procedures were conducted in compliance with all relevant local, state and federal regulations and were approved by the Alpha Genesis IACUC. […] The injection sites were monitored daily by veterinary staff for 3 days. Beginning in week 1, animals in all three groups were challenged by the intrarectal route with 1 ml of RPMI containing the specified dilution of a 3.62 × 10^3 TCID50 SHIV-SF162P3 stock. At each respective time point, the challenges were performed on the same day, using the same virus stock and inoculation method across the three groups. Whole blood was collected and processed into plasma and PBMCs as necessary to assess routine haematology, clinical chemistry, viral load and serology as well as for bioanalysis of drug levels. The animals were considered to be protected if they remained SHIV negative by plasma PCR assay and seronegative by enzyme immunoassay throughout the 15-week challenge phase and the 9-week follow-up.
Rhesus plasma samples were stored frozen at −80 °C.

CC(C)(C#Cc1ccc(-c2ccc(Cl)c3c(NS(=O)(=O)C4CC4)nn(CC(F)F)c23)c([C@H](Cc2cc(F)cc(F)c2)NC(=O)Cn2nc(C(F)F)c3c2C(F)(F)[C@@H]2C[C@H]32)n1)S(C)(=O)=O [GS-CA1]
% Virus Production, replicates n1–n3 ([1]; 0.011 nM): 122% and 104% and 99% and 93% and 127% and 160% and 82% and 121% and 88% and 87% and 68%
% Virus Production, MEAN ([1]; 0.011 nM): 108% and 126% and 97% and 83% and 121% and 68%
% Virus Production, replicates n1–n3 ([1]; 0.034 nM): 106% and 78% and 72% and 136% and 114% and 75% and 116% and 105% and 181% and 64% and 89% and 82% and 53% and 93%
% Virus Production, replicates n1–n3 ([1]; 0.103 nM): 127% and 124% and 79% and 73% and 103% and 118% and 130% and 152% and 105% and 82% and 99% and 121% and 76% and 71%
% Virus Production, MEAN ([1]; 0.103 nM): 110% and 85% and 133% and 95% and 89% and 99% and 67%
% Virus Production, replicates n1–n3 ([1]; 0.309 nM): 75% and 74% and 102% and 149% and 120% and 72% and 78% and 94% and 103% and 109% and 66%
% Virus Production, replicates n1–n3 ([1]; 0.926 nM): 65% and 37% and 36% and 39% and 31% and 20% and 16% and 18% and 23% and 70% and 14% and 22%
% Virus Production, replicates n1–n3 ([1]; 2.778 nM): 0.408% and 2% and 2.34% and 1.77% and 1.55% and 0.489% and 2.2% and 1.37% and 0.76% and 0.799%
% Virus Production, MEAN ([1]; 2.778 nM): 1.61% and 1.79% and 1.35% and 1.16% and 2.6% and 1.28% and 0.0528%
% Virus Production, replicates n1–n3 ([1]; 8.333 nM): 1.76% and 1% and 0.517% and 0.425% and 0.705% and 0.145% and 0.0164% and 0.262% and 1.4% and 0.22% and 0.682% and 0.142%
% Virus Production, MEAN ([1]; 8.333 nM): 1.08% and 0.425% and 0.559% and 0.348% and 1.87% and 0.078% and 0.398%
% Virus Production, replicates n1–n3 ([1]; 25.000 nM): -0.0465% and -0.0193% and 0.798% and -0.276% and 0.164% and 0.276% and 1% and 0.434% and -0.106% and 0.12% and 0.292% and 0.064% and 0.0863%
% Virus Production, MEAN ([1]; 25.000 nM): 0.244% and 0.0545% and 0.436% and 0.159% and -0.387% and 0.675% and 0.293%
Rhesus PBMC paEC95 ([1]; EC95 × rhesus plasma shift): 30.2 nM and 30.2 ± 2.5 nM and 30 nM
EC50 ([1]; Simian immunodeficiency virus, PBMC, in Macaca mulatta, 168 h, read-out: EC50, rhesus PBMCs, SHIV-SF162P3, mean of 7 assays, SIV p27 ELISA day 7 post-infection): 0.72 nM
EC50 ([1]; Simian immunodeficiency virus, PBMC, in Macaca mulatta, 168 h, read-out: SHIV162P3-rhPBMC-EC50, individual experiments, single experiments n1–n7, SIV p27 ELISA day 7): 0.66 nM
Rhesus PBMC EC95 ([1]; calculated from SHIV EC50 and Hill slope: EC50 × (95/5)^1/n): 1.91 nM and 1.91 ± 0.16 nM and 1.9 nM
EC50 ([1]; read-out: SHIV162P3-rhPBMC-EC50, individual experiments, single experiments n1–n7, SIV p27 ELISA day 7): 0.71 nM and 0.777 nM and 0.868 nM and 0.535 nM and 0.74 nM (2×) and 0.661 nM and 0.78 nM and 0.714 nM and 0.87 nM and 0.54 nM
hepatic extraction [2]: 2.9%
predicted rate of hepatic clearance ([2]; 3H-labelled GS-CA1): 1.2 mL/min/kg
time above the rhesus paEC95 [3]: 8–15 weeks
time six times above the rhesus paEC95 [3]: 3–7 weeks
Cmax ([3]; n=8, mean ± SD): 3.02 ± 1.07 µM
Plasma GS-CA1 ([3]; Week 1): 899.55 nM
Plasma GS-CA1 ([3]; Week 2): 1188.65 nM
Plasma GS-CA1 ([3]; Week 3): 497.91 nM
Plasma GS-CA1 ([3]; Week 4): 153.01 nM
Plasma GS-CA1 ([3]; Week 5): 181.45 nM
Plasma GS-CA1 ([3]; Week 6): 238.73 nM
Plasma GS-CA1 ([3]; Week 7): 104 nM
Plasma GS-CA1 ([3]; Week 8): 126.07 nM
Plasma GS-CA1 ([3]; Week 9): 74.21 nM and 60.58 nM
Plasma GS-CA1 ([3]; Week 10): 50.06 nM and 64.16 nM
Plasma GS-CA1 ([3]; Week 11): 28.74 nM and 29.18 nM
